For test [1], the system named is L1210 leukemia cell cultures. The following applies: Falco and Fox, J. Med. Chem. 11, 148 (1968); cited from earlier work.
In a further test the test system is Burkitt's cell cultures. To be noted: Falco and Fox, J. Med. Chem. 11, 148 (1968); cited from earlier work.
The test system of the next test is Yoshida sarcoma. The following applies: Japanese Pat. No. 51-086481; cited from earlier work.
Another test has as its system Sarcoma 180 Tumor. Format: in vivo, albino mice. On the procedure:
(§1) All compounds were dissolved in water for administration to animals.
(§2) Small pieces of tumor (20-30mg) were implanted subcutaneously by trocar into the right inguinal region of 18-20 g albino mice. The fragments were obtained from donors bearing firm subcutaneous tumors implanted 7-10 days previously. Treatment was begun on the day of implantation and continued once daily for a total of 8 treatments. The animals were sacrificed 8 days after implantation and the tumors excised and weighed. The ratio of the average weight of the tumors from the untreated control group (C) divided by the average weight of the tumors from the treated group (T) was calculated. The percent inhibition of tumor growth was calculated from the formula:
(§3) % Inhibition = 100 (C-T)/C . The compound was considered to be active at a particular dose if % inhibition ≥ 50%.
(§4) Results obtained from experiments, utilizing compounds of the present invention and representative prior art compounds are summarized below in Table 1.
Effect of Pyrimidine Nucleosides Against Sarcoma 180 Tumor in Mice
(active doses are those which produce ≥50% tumor inhibition)

Another test concerns Ehrlich Carcinoma. Format: in vivo, albino mice. The protocol: as §1, §2, §3
The solid form of this tumor was produced by subcutaneous implantation of 0.5 ml of a 1-10 saline - diluted ascitic tumor cell suspensions derived from 18-20 g albino donor mice implanted 7-10 days previously. Treatment and evaluation procedures were identical to those used for Sarcoma 180.
as §4
Effect of pyrimidine Nucleosides Against Ehrlich Carcinoma in Mice

Molecules are shown by their SMILES. Where two headings read alike, the source gives them in different places.

For the compound `C[C@H]1O[C@@H](n2ccc(N)nc2=O)[C@@H](O)[C@@H]1O` [1-(5'-deoxy-β-D-arabinofuranosyl) cytosine], the “activity against L1210 leukemia cell cultures” value in test [1] is “inactive”. Also, the “activity against Burkitt's cell cultures” value in the test on Burkitt's cell cultures is “inactive”.
Take `C[C@H]1O[C@@H](n2cc(F)c(=O)[nH]c2=O)C[C@@H]1O` [2',5'-Dideoxy-5-Fluorouridine, reference compound]: in the test with Yoshida sarcoma, the “inhibition of growth of Yoshida sarcoma” value was “inhibiting the growth of Yoshida sarcoma”. In addition, the “Percent Inhibition of tumor growth” value in the test with Sarcoma 180 Tumor (100 mg/kg × 8, ip) is recorded as 37%; in the test with Sarcoma 180 Tumor (200 mg/kg × 8, ip), 68%; in the test on Sarcoma 180 Tumor (200 mg/kg × 8, po) it was 34%; in the test on Sarcoma 180 Tumor (400 mg/kg × 8, ip), 81%.
Regarding `C[C@H]1O[C@@H](n2cc(F)c(N)nc2=O)[C@H](O)[C@@H]1O` [5'-Deoxy-5-Fluorocytidine], the “Percent Inhibition of tumor growth” value is reported as 45% in the test on Ehrlich Carcinoma (25 mg/kg × 8, ip); 37% in the test on Ehrlich Carcinoma (25 mg/kg × 8, po); 57% in the test on Ehrlich Carcinoma (50 mg/kg × 8, ip); 58% in the test with Ehrlich Carcinoma (50 mg/kg × 8, po); 65% in the test on Ehrlich Carcinoma (100 mg/kg × 8, ip); 71% in the test with Ehrlich Carcinoma (100 mg/kg × 8, po). Besides, the “Percent Inhibition of tumor growth” value with Ehrlich Carcinoma (200 mg/kg × 8, ip) was 72%; in the test with Ehrlich Carcinoma (200 mg/kg × 8, po), 80%; with Ehrlich Carcinoma (400 mg/kg × 8, ip), 91%; in the test with Ehrlich Carcinoma (400 mg/kg × 8, po), 95%; with Ehrlich Carcinoma (800 mg/kg × 8, po) it was 99%; in the test with Sarcoma 180 Tumor (6.25 mg/kg × 8, po), 26%. The “Percent Inhibition of tumor growth” value came to 37% with Sarcoma 180 Tumor (12.5 mg/kg × 8, ip); 62% in the test with Sarcoma 180 Tumor (12.5 mg/kg × 8, po); 64% in the test with Sarcoma 180 Tumor (25 mg/kg × 8, ip); 76% in the test with Sarcoma 180 Tumor (25 mg/kg × 8, po); 72% in the test on Sarcoma 180 Tumor (50 mg/kg × 8, ip); 65% in the test with Sarcoma 180 Tumor (50 mg/kg × 8, po). Besides, the “Percent Inhibition of tumor growth” value is 86% in the test with Sarcoma 180 Tumor (100 mg/kg × 8, ip); 76% in the test on Sarcoma 180 Tumor (100 mg/kg × 8, po); 93% in the test on Sarcoma 180 Tumor (200 mg/kg × 8, ip); 82% in the test with Sarcoma 180 Tumor (200 mg/kg × 8, po); 95% in the test on Sarcoma 180 Tumor (400 mg/kg × 8, ip); 92% with Sarcoma 180 Tumor (400 mg/kg × 8, po).
As to `C[C@H]1O[C@@H](n2cc(F)c(=O)[nH]c2=O)[C@H](O)[C@@H]1O` [5'-Deoxy-5-Fluorouridine], the “Percent Inhibition of tumor growth” value with Ehrlich Carcinoma (25 mg/kg × 8, ip) is 43%; in the test on Ehrlich Carcinoma (25 mg/kg × 8, po) it was 27%; in the test with Ehrlich Carcinoma (50 mg/kg × 8, ip), 59%; with Ehrlich Carcinoma (50 mg/kg × 8, po), 56%; in the test with Ehrlich Carcinoma (100 mg/kg × 8, ip) it was 71%; in the test on Ehrlich Carcinoma (100 mg/kg × 8, po) it was 70%. Moreover, the “Percent Inhibition of tumor growth” value in the test on Ehrlich Carcinoma (200 mg/kg × 8, ip) came to 86%; in the test on Ehrlich Carcinoma (200 mg/kg × 8, po), 90%; with Ehrlich Carcinoma (400 mg/kg × 8, ip), 98%; with Ehrlich Carcinoma (400 mg/kg × 8, po) it was 98%; in the test with Ehrlich Carcinoma (800 mg/kg × 8, po), 99%; with Sarcoma 180 Tumor (1.56 mg/kg × 8, po) it was 30%. Also, the “Percent Inhibition of tumor growth” value worked out at 51% with Sarcoma 180 Tumor (3.12 mg/kg × 8, po); 68% in the test on Sarcoma 180 Tumor (6.25 mg/kg × 8, po); 43% with Sarcoma 180 Tumor (12.5 mg/kg × 8, ip); 73% in the test with Sarcoma 180 Tumor (12.5 mg/kg × 8, po); 67% in the test on Sarcoma 180 Tumor (25 mg/kg × 8, ip); 75% in the test with Sarcoma 180 Tumor (25 mg/kg × 8, po). Further, the “Percent Inhibition of tumor growth” value in the test on Sarcoma 180 Tumor (50 mg/kg × 8, ip) is 89%; in the test on Sarcoma 180 Tumor (50 mg/kg × 8, po), 80%; in the test with Sarcoma 180 Tumor (100 mg/kg × 8, ip), 88%; in the test on Sarcoma 180 Tumor (100 mg/kg × 8, po), 83%; in the test on Sarcoma 180 Tumor (200 mg/kg × 8, ip) it was 88%; in the test on Sarcoma 180 Tumor (200 mg/kg × 8, po) it was 90%. Also, the “Percent Inhibition of tumor growth” value in the test on Sarcoma 180 Tumor (400 mg/kg × 8, po) is reported as 90%.
For the compound `C[C@H]1O[C@@H](n2ccc(=O)[nH]c2=O)[C@H](O)[C@@H]1O` [5'-Deoxyuridine, reference compound], the “Percent Inhibition of tumor growth” value in the test with Sarcoma 180 Tumor (100 mg/kg × 8, ip) was 41%; in the test on Sarcoma 180 Tumor (200 mg/kg × 8, ip) it was 9%.
